# Experimental data as given in article PMC8307317, “Point-Substitution of Phenylalanine Residues of 26RFa Neuropeptide: A Structure-Activity Relationship Study” (Molecules, 2021).
# pEC50: −log10 of the molar value. Read-outs that look alike come from different tables or passages of the source. Non-standard residues stand in square brackets, D forms with d. Residues, ends and D or L forms follow the SMILES beside them. ξ: configuration not given here. Phe(4-NO2) = N[C@@H](Cc1ccc([N+](=O)[O-])cc1)C(=O)O; Phe(4-tBu) = CC(C)(C)c1ccc(C[C@H](N)C(=O)O)cc1; Phe(4-Cl) = N[C@@H](Cc1ccc(Cl)cc1)C(=O)O; 2Nal = N[C@@H](Cc1ccc2ccccc2c1)C(=O)O; NMeF = CN[C@@H](Cc1ccccc1)C(=O)O; Tic = O=C(O)[C@@H]1Cc2ccccc2CN1; 2Thi = N[C@@H](Cc1cccs1)C(=O)O; ξPhg = NC(C(=O)O)c1ccccc1
# Target: T1, human QRFPR (hQRFPR) (Homo sapiens, UniProt Q96P65)
# T1 construct: expressed in transfected cells; host or cells: CHO cells, stably transfected with hQRFPR (G418 selection) and Gα16 (hygromycin B selection)
# T1 sequence (Q96P65 1-431): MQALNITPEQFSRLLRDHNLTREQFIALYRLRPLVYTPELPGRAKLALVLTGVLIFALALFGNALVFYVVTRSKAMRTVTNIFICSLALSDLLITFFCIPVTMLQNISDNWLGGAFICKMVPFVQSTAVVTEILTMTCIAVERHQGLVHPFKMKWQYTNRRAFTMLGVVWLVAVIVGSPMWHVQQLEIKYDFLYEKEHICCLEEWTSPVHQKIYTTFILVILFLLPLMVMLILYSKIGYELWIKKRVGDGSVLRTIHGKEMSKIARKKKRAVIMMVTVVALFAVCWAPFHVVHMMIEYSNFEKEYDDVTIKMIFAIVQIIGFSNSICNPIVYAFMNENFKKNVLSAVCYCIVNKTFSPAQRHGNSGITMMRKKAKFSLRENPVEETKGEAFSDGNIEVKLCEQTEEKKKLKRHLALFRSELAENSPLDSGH
# Test: Calcium mobilization assay, agonist mode ([Ca2+]i in Gα16-hQRFPR-transfected CHO cells)
# Format: cell-based
# Method: Stably transfected hQRFPR CHO cells were obtained as previously described. The cells were maintained in F-12 nutrient mixture (Ham-F12) medium supplemented with 10% fetal bovine serum, 2 mM glutamine, and penicillin-streptomycin. Expression of Gα16 cells was maintained using selection antibiotic hygromycin B (200 µg/mL) and that of hQRFPR using geneticin G418 (500 µg/mL) (Life Technologies, Villebon-Sur-Yvette, France) in a humidified 5% CO2 atmosphere at 37 °C.
# Changes in intracellular Ca^2+ concentrations induced by 26RFa(20–26) analogs in CHO-Gα16-hQRFPR-transfected cells were measured on a benchtop scanning fluorometer Flexstation III (Molecular Devices, Sunnyvale, CA, USA) as previously described. Briefly, 96-well assay black plates with clear bottoms (Corning international, Avon, France) were seeded at a density of 40,000 cells/well 24 h prior to assay. For profiling agonistic experiments, cells were loaded with 2 µM Fluo-4 acetoxymethyl ester (AM) (Invitrogen) for 1 h in the presence of 0.01% pluronic acid, washed thrice, and incubated for 30 min with standard HBSS containing 2.5 mM probenecid and 5 mM HEPES. Compounds to be tested were added at final concentrations ranging from 10^−11 to 10^−5 M in HBSS, and the fluorescence intensity was measured during 3 min. To evaluate the antagonistic potency of the test compounds, cells were incubated with each compound over 15 min after Fluo-4 AM loading. Then, during fluorescence recording, a pulse of 26RFa was administered at a final concentration of 10^−7 M. After subtraction of the mean fluorescence background, the baseline was normalized to 100%. Fluorescence peak values were determined for each concentration of compound.
# Calcium experiments were performed in triplicate, and data, expressed as mean ± SEM of at least three distinct experiments, were analyzed with the Prism 8.0 software (Graphpad Software, San Diego, CA, USA). EC50 and the IC50 values were determined from concentration–response curves using a sigmoidal dose–response fit with variable slope from at least three independent determinations. Differences between 26RFa(20–26) and analog activities were analyzed by the Mann–Whitney test. p values < 0.05 were considered significant.
# [1] = [Ca2+]i mobilization in Gα16-hQRFPR-transfected CHO cells, mean of at least three independent experiments performed in triplicate, read-out: EC50
# [2] = single prototype curve, triplicate, basal [Ca2+]i mobilization, read-out: EC50 calculated from representative dose–response curves (Figure 3)
SMILES,pEC50 [1],pEC50 [2],"pEC50 ([Ca2+]i mobilization, N-methylated analogs, read-out: EC50)"
"N=C(N)NCCC[C@H](NC(=O)[C@H](Cc1ccccc1)NC(=O)[C@H](CO)NC(=O)[C@H](Cc1cccs1)NC(=O)CNC(=O)CN)C(=O)N[C@@H](Cc1ccccc1)C(N)=O [Compound 2, [Thi^22]26RFa(20–26)] (H-GG[2Thi]SFRF-NH2)",5.50,–,–
"N=C(N)NCCC[C@H](NC(=O)[C@H](Cc1cccs1)NC(=O)[C@H](CO)NC(=O)[C@H](Cc1ccccc1)NC(=O)CNC(=O)CN)C(=O)N[C@@H](Cc1ccccc1)C(N)=O [Compound 3, [Thi^24]26RFa(20–26)] (H-GGFS[2Thi]RF-NH2)",5.60,–,–
"N=C(N)NCCC[C@H](NC(=O)[C@H](Cc1ccccc1)NC(=O)[C@H](CO)NC(=O)[C@H](Cc1ccccc1)NC(=O)CNC(=O)CN)C(=O)N[C@@H](Cc1cccs1)C(N)=O [Compound 4, [Thi^26]26RFa(20–26)] (H-GGFSFR[2Thi]-NH2)",5.14,–,–
"N=C(N)NCCC[C@H](NC(=O)[C@H](Cc1ccccc1)NC(=O)[C@H](CO)NC(=O)[C@H](Cc1ccc2ccccc2c1)NC(=O)CNC(=O)CN)C(=O)N[C@@H](Cc1ccccc1)C(N)=O [Compound 5, [2Nal^22]26RFa(20–26)] (H-GG[2Nal]SFRF-NH2)",5.94,–,–
"N=C(N)NCCC[C@H](NC(=O)[C@H](Cc1ccc2ccccc2c1)NC(=O)[C@H](CO)NC(=O)[C@H](Cc1ccccc1)NC(=O)CNC(=O)CN)C(=O)N[C@@H](Cc1ccccc1)C(N)=O [Compound 6, [2Nal^24]26RFa(20–26)] (H-GGFS[2Nal]RF-NH2)",4.82,–,–
"N=C(N)NCCC[C@H](NC(=O)[C@H](Cc1ccccc1)NC(=O)[C@H](CO)NC(=O)[C@H](Cc1ccccc1)NC(=O)CNC(=O)CN)C(=O)N[C@@H](Cc1ccc2ccccc2c1)C(N)=O [Compound 7, [2Nal^26]26RFa(20–26)] (H-GGFSFR[2Nal]-NH2)",5.42,–,–
"CC(C)(C)c1ccc(C[C@H](NC(=O)[C@H](CO)NC(=O)[C@H](Cc2ccccc2)NC(=O)CNC(=O)CN)C(=O)N[C@@H](CCCNC(=N)N)C(=O)N[C@@H](Cc2ccccc2)C(N)=O)cc1 [Compound 12, [ptBuPhe^24]26RFa(20–26)] (H-GGFS[Phe(4-tBu)]RF-NH2)",< 5.00,–,–
"CC(C)(C)c1ccc(C[C@H](NC(=O)[C@H](CCCNC(=N)N)NC(=O)[C@H](Cc2ccccc2)NC(=O)[C@H](CO)NC(=O)[C@H](Cc2ccccc2)NC(=O)CNC(=O)CN)C(N)=O)cc1 [Compound 13, [ptBuPhe^26]26RFa(20–26)] (H-GGFSFR[Phe(4-tBu)]-NH2)",5.98,5.97,–
"N=C(N)NCCC[C@H](NC(=O)[C@H](Cc1ccccc1)NC(=O)[C@H](CO)NC(=O)[C@H](Cc1ccc(Cl)cc1)NC(=O)CNC(=O)CN)C(=O)N[C@@H](Cc1ccccc1)C(N)=O [Compound 14, [Pcp^22]26RFa(20–26)] (H-GG[Phe(4-Cl)]SFRF-NH2)",5.30,–,–
"N=C(N)NCCC[C@H](NC(=O)[C@H](Cc1ccc(Cl)cc1)NC(=O)[C@H](CO)NC(=O)[C@H](Cc1ccccc1)NC(=O)CNC(=O)CN)C(=O)N[C@@H](Cc1ccccc1)C(N)=O [Compound 15, [Pcp^24]26RFa(20–26)] (H-GGFS[Phe(4-Cl)]RF-NH2)",6.07,–,–
"N=C(N)NCCC[C@H](NC(=O)[C@H](Cc1ccccc1)NC(=O)[C@H](CO)NC(=O)[C@H](Cc1ccccc1)NC(=O)CNC(=O)CN)C(=O)N[C@@H](Cc1ccc(Cl)cc1)C(N)=O [Compound 16, [Pcp^26]26RFa(20–26)] (H-GGFSFR[Phe(4-Cl)]-NH2)",6.34,6.38,–
"N=C(N)NCCC[C@H](NC(=O)[C@H](Cc1ccccc1)NC(=O)[C@H](CO)NC(=O)[C@H](Cc1ccc([N+](=O)[O-])cc1)NC(=O)CNC(=O)CN)C(=O)N[C@@H](Cc1ccccc1)C(N)=O [Compound 17, [pNO2Phe^22]26RFa(20–26)] (H-GG[Phe(4-NO2)]SFRF-NH2)",5.67,–,–
"N=C(N)NCCC[C@H](NC(=O)[C@H](Cc1ccc([N+](=O)[O-])cc1)NC(=O)[C@H](CO)NC(=O)[C@H](Cc1ccccc1)NC(=O)CNC(=O)CN)C(=O)N[C@@H](Cc1ccccc1)C(N)=O [Compound 18, [pNO2Phe^24]26RFa(20–26)] (H-GGFS[Phe(4-NO2)]RF-NH2)",< 5.00,–,–
"N=C(N)NCCC[C@H](NC(=O)[C@H](Cc1ccccc1)NC(=O)[C@H](CO)NC(=O)[C@H](Cc1ccccc1)NC(=O)CNC(=O)CN)C(=O)N[C@@H](Cc1ccc([N+](=O)[O-])cc1)C(N)=O [Compound 19, [pNO2Phe^26]26RFa(20–26)] (H-GGFSFR[Phe(4-NO2)]-NH2)",6.31,6.31,–
"N=C(N)NCCC[C@H](NC(=O)[C@H](Cc1ccccc1)NC(=O)[C@H](CO)NC(=O)C(NC(=O)CNC(=O)CN)c1ccccc1)C(=O)N[C@@H](Cc1ccccc1)C(N)=O (stereo partly drawn) [Compound 20, [Phg^22]26RFa(20–26)] (H-GG[ξPhg]SFRF-NH2)",5.30,–,–
"N=C(N)NCCC[C@H](NC(=O)C(NC(=O)[C@H](CO)NC(=O)[C@H](Cc1ccccc1)NC(=O)CNC(=O)CN)c1ccccc1)C(=O)N[C@@H](Cc1ccccc1)C(N)=O (stereo partly drawn) [Compound 21, [Phg^24]26RFa(20–26)] (H-GGFS[ξPhg]RF-NH2)",< 5.00,–,–
"N=C(N)NCCC[C@H](NC(=O)C(NC(=O)[C@H](CO)NC(=O)[C@H](Cc1ccccc1)NC(=O)CNC(=O)CN)c1ccccc1)C(=O)N[C@@H](Cc1ccccc1)C(N)=O (stereo partly drawn) [Compound 22, [Phg^24]26RFa(20–26)] (H-GGFS[ξPhg]RF-NH2)",< 5.00,–,–
"N=C(N)NCCC[C@H](NC(=O)[C@H](Cc1ccccc1)NC(=O)[C@H](CO)NC(=O)[C@H](Cc1ccccc1)NC(=O)CNC(=O)CN)C(=O)NC(C(N)=O)c1ccccc1 (stereo partly drawn) [Compound 23, [Phg^26]26RFa(20–26)] (H-GGFSFR[ξPhg]-NH2)",< 5.00,–,–
"N=C(N)NCCC[C@H](NC(=O)[C@H](Cc1ccccc1)NC(=O)[C@H](CO)NC(=O)[C@H](Cc1ccccc1)NC(=O)CNC(=O)CN)C(=O)NC(C(N)=O)c1ccccc1 (stereo partly drawn) [Compound 24, [Phg^26]26RFa(20–26)] (H-GGFSFR[ξPhg]-NH2)",< 5.00,–,–
"CN(C(=O)CNC(=O)CN)[C@@H](Cc1ccccc1)C(=O)N[C@@H](CO)C(=O)N[C@@H](Cc1ccccc1)C(=O)N[C@@H](CCCNC(=N)N)C(=O)N[C@@H](Cc1ccccc1)C(N)=O [Compound 25, [NMePhe^22]26RFa(20–26)] (H-GG[NMeF]SFRF-NH2)",4.82,–,< 5.00
"CN(C(=O)[C@H](CO)NC(=O)[C@H](Cc1ccccc1)NC(=O)CNC(=O)CN)[C@@H](Cc1ccccc1)C(=O)N[C@@H](CCCNC(=N)N)C(=O)N[C@@H](Cc1ccccc1)C(N)=O [Compound 26, [NMePhe^24]26RFa(20–26)] (H-GGFS[NMeF]RF-NH2)",5.87,–,–
"CN(C(=O)[C@H](CCCNC(=N)N)NC(=O)[C@H](Cc1ccccc1)NC(=O)[C@H](CO)NC(=O)[C@H](Cc1ccccc1)NC(=O)CNC(=O)CN)[C@@H](Cc1ccccc1)C(N)=O [Compound 27, [NMePhe^26]26RFa(20–26)] (H-GGFSFR[NMeF]-NH2)",< 5.00,–,–
"N=C(N)NCCC[C@H](NC(=O)[C@H](Cc1ccccc1)NC(=O)[C@H](CO)NC(=O)[C@@H]1Cc2ccccc2CN1C(=O)CNC(=O)CN)C(=O)N[C@@H](Cc1ccccc1)C(N)=O [Compound 28, [Tic^22]26RFa(20–26)] (H-GG[Tic]SFRF-NH2)",6.49,6.52,–
"N=C(N)NCCC[C@H](NC(=O)[C@@H]1Cc2ccccc2CN1C(=O)[C@H](CO)NC(=O)[C@H](Cc1ccccc1)NC(=O)CNC(=O)CN)C(=O)N[C@@H](Cc1ccccc1)C(N)=O [Compound 29, [Tic^24]26RFa(20–26)] (H-GGFS[Tic]RF-NH2)",< 5.00,–,–
"N=C(N)NCCC[C@H](NC(=O)[C@H](Cc1ccccc1)NC(=O)[C@H](CO)NC(=O)[C@H](Cc1ccccc1)NC(=O)CNC(=O)CN)C(=O)N1Cc2ccccc2C[C@H]1C(N)=O [Compound 30, [Tic^26]26RFa(20–26)] (H-GGFSFR[Tic]-NH2)",5.11,–,–
